Data as given in patent US11691962B2 (eXIthera Pharmaceuticals, Inc., priority 2018, dated 2023).

Key:
Factor XIa = Factor XIa (Homo sapiens (Human), UniProt P03951); assay: Factor XIa enzyme inhibition assay (dose response, fluorogenic AMC substrate); format: biochemical; details: read-out: hFXIa IC50
In short: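 Human FXIa at 0.25 nM final with 50 μM final PyroGlu-Pro-Arg-AMC in 20 mM Hepes pH 7.4, 150 mM NaCl, 0.02% Tween 20. Two-fold serial compound dilutions; fluorescence read every minute for 30 min at 30° C. IC50 from a four-parameter Hill fit.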

Trypsin = assay: Dose response assay for protease inhibitors: trypsin; format: biochemical; details: selectivity, trypsin over Factor XIa
In short: (§1)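 Fluorogenic AMC-peptide cleavage in 20 mM Hepes pH 7.4, 150 mM NaCl, 0.02% Tween 20; 100 μM stock substrate dilution (Glp-Pro-Arg-AMC for thrombin/trypsin; Pro-Phe-Arg-AMC or Boc-Leu-Gly-Arg-AMC for Factor Xa). Enzyme diluted to 0.5 nM, added last to two-fold compound series; kinetic read at 30° C, 30 min (Factor Xa 60 min); IC50 fitted.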

Factor Xa = Factor Xa (Homo sapiens (Human), UniProt P00742); assay: Dose response assay for protease inhibitors: Factor Xa; format: biochemical; details: selectivity, Factor Xa over Factor XIa
In short: as §1

[1] = Metabolic stability in dog hepatocytes; format: in vitro ADME; details: pooled cryopreserved hepatocytes; beagle dog hepatocytes, 2 μM compound; read-out: Dog Hepatocyte Stability (t1/2)
Procedure: The following procedure was used to determine the stability of test compounds in beagle dog hepatocytes in a 96-well plate format. The test compounds, including the controls, imipramine and 7-ethoxycoumarin, were dissolved at 10 mM in DMSO, followed by further 5-fold dilution with DMSO to 2 mM. Pooled cryopreserved beagle dog hepatocytes were thawed and transferred into complete medium. Cells were gently centrifuged (700 rpm for 5 min) and the pellet rinsed with KHB (Krebs Henseleit buffer). Cells were resuspended, counted using Trypan blue, and adjusted to 1 million cells/mL in KHB buffer. The 2 mM compound stock solutions were diluted 10-fold with acetonitrile, followed by a further 50-fold dilution with KHB buffer. 200 μL of these compound solutions were transferred to 96-well polypropylene assay plates and an equal volume of the hepatocyte solution was added and mixed to initiate the reaction (final assay concentrations were 2 μM compound and 500,000 cells/mL). Assay plates were incubated at 37° C. in 5% CO2 with gentle agitation. 50 μL aliquots were removed at multiple time points out to 180 minutes and quenched with 6 volumes of cold acetonitrile (containing 250 ng/mL of carbutamide and chrysin as internal standards) to terminate the reaction and precipitate protein. Quenched samples were maintained on ice. The quenched samples were centrifuged at 2000×g (3100 rpm) for 10 minutes at 4° C. 50 μL aliquots of the supernatants were removed and diluted with 100 μL Milli-Q water to reduce the % organic content prior to bioanalysis by LC-MS/MS. Peak areas corresponding to the test compound were recorded. The compound remaining was calculated by comparing the peak area at each time point to time zero. Data were analyzed and results were calculated using Microsoft Excel 2010.

Sequence of Factor XIa (P03951 388-625): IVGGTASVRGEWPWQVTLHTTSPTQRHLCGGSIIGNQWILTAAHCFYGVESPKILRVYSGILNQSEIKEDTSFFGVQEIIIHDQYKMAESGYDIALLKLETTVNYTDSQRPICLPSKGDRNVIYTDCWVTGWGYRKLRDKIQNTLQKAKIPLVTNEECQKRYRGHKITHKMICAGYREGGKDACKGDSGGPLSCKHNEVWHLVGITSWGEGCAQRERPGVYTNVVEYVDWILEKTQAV
Sequence of Factor XIa (P03951 19-387 partner): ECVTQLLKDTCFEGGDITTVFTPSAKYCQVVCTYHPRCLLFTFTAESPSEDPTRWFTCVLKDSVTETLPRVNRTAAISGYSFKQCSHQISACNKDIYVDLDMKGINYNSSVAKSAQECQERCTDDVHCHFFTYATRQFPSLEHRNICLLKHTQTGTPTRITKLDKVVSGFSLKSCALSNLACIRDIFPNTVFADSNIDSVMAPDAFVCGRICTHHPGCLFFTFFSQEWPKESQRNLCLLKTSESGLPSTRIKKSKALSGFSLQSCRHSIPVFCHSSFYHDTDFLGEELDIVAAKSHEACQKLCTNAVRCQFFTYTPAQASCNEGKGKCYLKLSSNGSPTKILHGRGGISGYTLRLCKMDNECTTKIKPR
Sequence of Factor Xa (P00742 235-488): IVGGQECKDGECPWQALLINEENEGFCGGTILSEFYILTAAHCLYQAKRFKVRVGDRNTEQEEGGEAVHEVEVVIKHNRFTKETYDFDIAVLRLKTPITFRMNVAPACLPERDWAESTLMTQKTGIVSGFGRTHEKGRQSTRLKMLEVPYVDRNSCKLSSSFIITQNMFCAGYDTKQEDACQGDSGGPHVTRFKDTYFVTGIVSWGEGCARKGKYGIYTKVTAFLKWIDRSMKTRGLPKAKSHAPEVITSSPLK
Sequence of Factor Xa (P00742 41-179 partner): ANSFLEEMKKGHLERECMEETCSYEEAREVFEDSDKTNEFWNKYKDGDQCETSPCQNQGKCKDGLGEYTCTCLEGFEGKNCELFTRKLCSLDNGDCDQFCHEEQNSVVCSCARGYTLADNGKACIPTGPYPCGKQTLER

Compound: CC[C@@H](NC(=O)N1C(=O)[C@H](Cc2ccnc(N)c2)[C@H]1C(=O)N(C)c1nccn1C)c1ccccc1Cl [Compound 1-83]
- IC50 (Factor XIa): 10 to 100 nM
- Ratio: Trypsin/FXIa (Trypsin): G (“G” indicates 1-100)
- Ratio: FXa/FXIa (Factor Xa): I (“I” indicates > 500)
- half-life at 2 μM [1]: 2.02 to 4 h

Compound: CC[C@@H](NC(=O)N1C(=O)[C@H](Cc2ccnc(N)c2)[C@H]1C(=O)N(C)c1cnn(C)c1)c1ccc(C)nc1 [Compound 1-18, (2S,3R)-3-((2-aminopyridin-4-yl)methyl)-N2-(1-methyl-1H-pyrazol-4-yl)-N1-((R)-1-(6-methylpyridin-3-yl)propyl)-N2-methyl-4-oxoazetidine-1,2-dicarboxamide]
- IC50 (Factor XIa): 10 to 100 nM
- Ratio: Trypsin/FXIa (Trypsin): G (“G” indicates 1-100)
- Ratio: FXa/FXIa (Factor Xa): H (“H” indicates 101-1000)
- half-life at 2 μM [1]: 2.02 to 4 h

Compound: CC[C@@H](NC(=O)N1C(=O)[C@H](Cc2cc(C)nc(N)c2)[C@H]1C(=O)N(C)c1nccn1C)c1cccc(Cl)c1 [Compound 1-43, (2S,3R)-3-((2-amino-6-methylpyridin-4-yl)methyl)-N2-(1-methyl-1H-imidazol-2-yl)-N1-((R)-1-(3-chlorophenyl)propyl)-N2-methyl-4-oxoazetidine-1,2-dicarboxamide]
- IC50 (Factor XIa): < 10 nM
- Ratio: Trypsin/FXIa (Trypsin): G (“G” indicates 1-100)
- Ratio: FXa/FXIa (Factor Xa): I (“I” indicates > 500)
- half-life at 2 μM [1]: 2.02 to 4 h

Compound: CC[C@@H](NC(=O)N1C(=O)[C@H](Cc2cc(C)nc(NC)c2)[C@H]1C(=O)N(C)c1nccn1C)c1cccc(Cl)c1 [Compound 1-46, (2S,3R)-3-((2-methylamino-6-methylpyridin-4-yl)methyl)-N2-(1-methyl-1H-imidazol-2-yl)-N1-((R)-1-(3-chlorophenyl)propyl)-N2-methyl-4-oxoazetidine-1,2-dicarboxamide]
- IC50 (Factor XIa): < 10 nM
- Ratio: Trypsin/FXIa (Trypsin): G (“G” indicates 1-100)
- Ratio: FXa/FXIa (Factor Xa): I (“I” indicates > 500)
- half-life at 2 μM [1]: 1.02 to 2 h

Compound: (2S,3R)-3-((2-amino-6-methylpyridin-4-yl)methyl)-N2-(1-methyl-1H-imidazol-2-yl)-N1-((R)-1-(3-fluorophenyl)propyl)-N2-methyl-4-oxoazetidine-1,2-dicarboxamide [Compound 1-120]
- IC50 (Factor XIa): < 10 nM
- Ratio: Trypsin/FXIa (Trypsin): G (“G” indicates 1-100)
- Ratio: FXa/FXIa (Factor Xa): I (“I” indicates > 500)

Compound: CC[C@@H](NC(=O)N1C(=O)[C@H](Cc2ccnc(N)c2)[C@H]1C(=O)N(C)c1cscn1)c1cccc(Cl)c1 [Compound 1-17, (2S,3R)-3-((2-aminopyridin-4-yl)methyl)-N2-(4-thiazolyl)-N1-((R)-1-(3-chlorophenyl)propyl)-N2-methyl-4-oxoazetidine-1,2-dicarboxamide]
- IC50 (Factor XIa): < 10 nM
- Ratio: Trypsin/FXIa (Trypsin): G (“G” indicates 1-100)
- Ratio: FXa/FXIa (Factor Xa): H (“H” indicates 101-1000)
- half-life at 2 μM [1]: 1.02 to 2 h

Compound: CC[C@@H](NC(=O)N1C(=O)[C@H](Cc2cc(C)nc(N)c2)[C@H]1C(=O)N(C)c1ccnn1C)c1ccc(F)c(F)c1 [Compound 1-158, (2S,3R)-3-((2-amino-6-methylpyridin-4-yl)methyl)-N2-(1-methyl-1H-pyrazol-5-yl)-N1-((R)-1-(3,4-difluorophenyl)propyl)-N2-methyl-4-oxoazetidine-1,2-dicarboxamide]
- IC50 (Factor XIa): < 10 nM
- Ratio: Trypsin/FXIa (Trypsin): G (“G” indicates 1-100)
- Ratio: FXa/FXIa (Factor Xa): I (“I” indicates > 500)
- half-life at 2 μM [1]: 2.02 to 4 h

Compound: CC[C@@H](NC(=O)N1C(=O)[C@H](Cc2ccnc(N)c2)[C@H]1C(=O)N(C)c1ccnn1C)c1cccc(Cl)c1 [Compound 1-4, (2S,3R)-3-((2-aminopyridin-4-yl)methyl)-N2-(1-methyl-1H-pyrazol-5-yl)-N1-((R)-1-(3-chlorophenyl)propyl)-N2-methyl-4-oxoazetidine-1,2-dicarboxamide]
- IC50 (Factor XIa): < 10 nM
- Ratio: Trypsin/FXIa (Trypsin): G (“G” indicates 1-100)
- Ratio: FXa/FXIa (Factor Xa): I (“I” indicates > 500)
- half-life at 2 μM [1]: 1.02 to 2 h

Compound: CC[C@@H](NC(=O)N1C(=O)[C@H](Cc2ccnc(NC)c2)[C@H]1C(=O)N(C)c1nccn1C)c1cccc(Cl)c1 [Compound 1-41, (2S,3R)-3-((2-methylaminopyridin-4-yl)methyl)-N2-(1-methyl-1H-imidazol-2-yl)-N1-((R)-1-(3-chlorophenyl)propyl)-N2-methyl-4-oxoazetidine-1,2-dicarboxamide]
- IC50 (Factor XIa): 10 to 100 nM
- Ratio: Trypsin/FXIa (Trypsin): G (“G” indicates 1-100)
- Ratio: FXa/FXIa (Factor Xa): I (“I” indicates > 500)
- half-life at 2 μM [1]: 1.02 to 2 h

Compound: CC[C@@H](NC(=O)N1C(=O)[C@H](Cc2ccnc(N)c2)[C@H]1C(=O)N(C)c1nccn1C)c1cccc(C)c1 [Compound 1-80, (2S,3R)-3-((2-aminopyridin-4-yl)methyl)-N2-(1-methyl-1H-imidazol-2-yl)-N1-((R)-1-(3-methylphenyl)propyl)-N2-methyl-4-oxoazetidine-1,2-dicarboxamide]
- IC50 (Factor XIa): < 10 nM
- Ratio: Trypsin/FXIa (Trypsin): G (“G” indicates 1-100)
- Ratio: FXa/FXIa (Factor Xa): I (“I” indicates > 500)
- half-life at 2 μM [1]: 2.02 to 4 h

Compound: CC[C@@H](NC(=O)N1C(=O)[C@H](Cc2ccnc(N)c2)[C@H]1C(=O)N(C)c1nccn1C)C1CCCCC1 [Compound 1-55, (2S,3R)-3-((2-aminopyridin-4-yl)methyl)-N2-(1-methyl-1H-imidazol-2-yl)-N1-((R)-1-cyclohexylpropyl)-N2-methyl-4-oxoazetidine-1,2-dicarboxamide]
- IC50 (Factor XIa): < 10 nM
- Ratio: Trypsin/FXIa (Trypsin): G (“G” indicates 1-100)
- Ratio: FXa/FXIa (Factor Xa): I (“I” indicates > 500)
- half-life at 2 μM [1]: 1.02 to 2 h

Compound: CN(C(=O)[C@@H]1[C@@H](Cc2ccnc(N)c2)C(=O)N1C(=O)N[C@@H](C1CCCCC1)C(F)(F)F)c1ccn(C)n1 [Compound 1-32, (2S,3R)-3-((2-aminopyridin-4-yl)methyl)-N2-(1-methyl-1H-pyrazol-3-yl)-N1-((S)-1-cyclohexyl-2,2,2-trifluoroethyl)-N2-methyl-4-oxoazetidine-1,2-dicarboxamide]
- IC50 (Factor XIa): < 10 nM
- Ratio: Trypsin/FXIa (Trypsin): G (“G” indicates 1-100)
- Ratio: FXa/FXIa (Factor Xa): I (“I” indicates > 500)
- half-life at 2 μM [1]: < 1 h

Compound: CC[C@@H](NC(=O)N1C(=O)[C@H](Cc2cc(C)nc(N)c2)[C@H]1C(=O)N(C)c1ccn(C)n1)c1cccc(C)c1 [Compound 1-22, (2S,3R)-3-((2-amino-6-methylpyridin-4-yl)methyl)-N2-(1-methyl-1H-pyrazol-3-yl)-N1-((R)-1-(3-methylphenyl)propyl)-N2-methyl-4-oxoazetidine-1,2-dicarboxamide]
- IC50 (Factor XIa): < 10 nM
- Ratio: Trypsin/FXIa (Trypsin): G (“G” indicates 1-100)
- Ratio: FXa/FXIa (Factor Xa): H (“H” indicates 101-1000)
- half-life at 2 μM [1]: 2.02 to 4 h

Compound: CC[C@@H](NC(=O)N1C(=O)[C@H](Cc2cc(C)nc(N)c2)[C@H]1C(=O)N(C)c1nccn1C)c1cc(F)ccc1F [Compound 1-137, (2S,3R)-3-((2-amino-6-methylpyridin-4-yl)methyl)-N2-(1-methyl-1H-imidazol-2-yl)-N1-((R)-1-(2,5-difluorophenyl)propyl)-N2-methyl-4-oxoazetidine-1,2-dicarboxamide]
- IC50 (Factor XIa): < 10 nM
- Ratio: Trypsin/FXIa (Trypsin): G (“G” indicates 1-100)
- Ratio: FXa/FXIa (Factor Xa): I (“I” indicates > 500)
- half-life at 2 μM [1]: > 4 h
